According to US7709460B2, “Method for treating or preventing a functional vitamin B12 deficiency in an individual and medical compositions for use in said method” (Cobalz Limited, priority 2001, dated 2010):

Key:
[1] = tested on: patients with a functional Vitamin B12 deficiency and suffering from a neuropsychiatric abnormality; test: cognitive component of the Alzheimer Disease Assessment Scale (ADAS-Cog) in treated patients; assay type: in vivo, human
Method: (§1) Cognitive scores (Mini Metal State Examination (MMSE) and the cognitive component of the Alzheimer Disease Assessment Scale (ADAS-Cog)) were recorded for cases and controls (16, 17).
(§2) The effect of generating a cobalt-sulphur bond by the co-administration of hydroxocobalamin and a glutathione precursor (N-acetyl cysteine or α-lipoic acid) on the symptoms of seven patients suffering from neuropsychiatric abnormalities was investigated.

[2] = serum homocysteine level under treatment; assay type: in vivo, human; conditions: Patient 4; monthly hydroxocobalamin plus oral folate, 1999; 23.7 μmol/l before treatment
[3] = tested on: patients with a functional Vitamin B12 deficiency and suffering from a neuropsychiatric abnormality; test: clinical observation of symptoms and behaviour in case reports (Example 2); assay type: in vivo, human
Source text: as §2

[4] = tested on: patients with a functional Vitamin B12 deficiency and suffering from a neuropsychiatric abnormality; test: Mini-Mental State Examination (MMSE) in treated patients; assay type: in vivo, human
Method: as §1, §2

[5] = tested on: cob(III)alamin reductase (CR); conditions: literature study (reference 15); cited from earlier work
[6] = side effects reported by patients; assay type: in vivo, human
[7] = Patient 4, monthly hydroxocobalamin plus oral folate, 1999
[8] = Patient 1, N-acetyl cysteine 600 mg daily added to monthly hydroxocobalamin, two weeks
[9] = Patient 7, 600 mg NAC daily added to hydroxocobalamin and folate, one month
[10] = Patient 4, N-acetylcysteine 600 mg daily added to B-vitamin supplementation

C/C1=C2/[N-][C@H]([C@H](CC(N)=O)[C@@]2(C)CCC(=O)NC[C@@H](C)OP(=O)([O-])O[C@H]2[C@@H](O)[C@@H](n3cnc4cc(C)c(C)cc43)O[C@@H]2CO)[C@]2(C)N=C(/C(C)=C3N=C(/C=C4N=C1[C@@H](CCC(N)=O)C\4(C)C)[C@@H](CCC(N)=O)[C@]\3(C)CC(N)=O)[C@@H](CCC(N)=O)[C@]2(C)CC(N)=O.[Co+3].[OH-] [hydroxocobalamin]
ADAS-Cog score ([1]; Patient 1, regular monthly hydroxocobalamin alone, February 2001): 28/70 | ADAS-Cog score [1, 7]: 70 | ADAS-Cog score ([1]; Patient 7, weekly hydroxocobalamin with oral folate, before NAC): 68 | serum homocysteine level [2]: 5.7 µmol/L | clinical response ([3]; Patient 1, monthly injections of hydroxocobalamin, from 1994): neuropsychiatric symptoms were initially much improved | clinical response (husband's report) ([3]; Patient 2, monthly injections of hydroxocobalamin): no significant change in their condition | clinical response ([3]; Patient 3, probable Alzheimer-type dementia, monthly hydroxocobalamin, ensuing 2 years): their mental condition continued to deteriorate | clinical response ([3]; Patient 4, probable Alzheimer-type dementia, monthly hydroxocobalamin plus folic acid 5 mg daily): their cognitive function continued to slowly deteriorate | cognitive function ([3]; Patient 7, vascular dementia, weekly hydroxocobalamin injections with oral folate supplement): no significant improvement in their cognitive function | MMSE score ([4]; Patient 1, regular monthly hydroxocobalamin injections alone, February 2001, before N-acetyl cysteine): 18/30 | MMSE score ([4]; Patient 2, monthly hydroxocobalamin, after 6 months): 21/30 | MMSE score ([4]; Patient 3, on monthly hydroxocobalamin, cognitive review in 1997): 13/30 | MMSE score [4, 7]: 5/30

vitamin B12
clinical response ([3]; Patient 6, presumed multiple sclerosis, regular injections of vitamin B12): very apparent improvement in their symptoms

C/C1=C2/[N-][C@H]([C@H](CC(N)=O)[C@@]2(C)CCC(=O)NC[C@@H](C)OP(=O)([O-])O[C@H]2[C@@H](O)[C@@H](n3cnc4cc(C)c(C)cc43)O[C@@H]2CO)[C@]2(C)N=C(/C(C)=C3N=C(/C=C4N=C1[C@@H](CCC(N)=O)C\4(C)C)[C@@H](CCC(N)=O)[C@]\3(C)CC(N)=O)[C@@H](CCC(N)=O)[C@]2(C)CC(N)=O.[CH2-][C@H]1O[C@@H](n2cnc3c(N)ncnc32)[C@H](O)[C@@H]1O.[Co] [Ado-Cbl, adenosyl cobalamin]
use as substrate / reductase activity [5]: Little or no reductase activity

cyanocobalamin [CN-Cbl]
use as substrate / reductase activity [5]: Little or no reductase activity

CC(=O)N[C@@H](CS)C(=O)O [N-acetyl cysteine]
side effects ([6]; Patient 5, oral N-Acetylcysteine 400 mg daily): some gastroenteric side effects | side effects ([6]; Patient 6, NAC, limited them to 100 mg daily): gastro intestinal side effects | improvement on the ADAS-Cog score ([1]; Patient 1, N-acetyl cysteine 600 mg daily added to hydroxocobalamin, two weeks vs before): eight | ADAS-Cog score [1, 8]: 20/70 | further change on the ADAS-Cog score ([1]; Patient 1, N-acetyl cysteine added to hydroxocobalamin, four-week assessment): gained an additional point | points gained on ADAS-Cog score [1, 9]: 6 points | clinical response (husband's report) ([3]; Patient 1, N-acetyl cysteine 600 mg daily added to hydroxocobalamin, two weeks): some noticeable improvement in their memory | clinical response (family and nursing staff) ([3]; Patient 3, severe dementia, oral N-acetyl cysteine 600 mg daily added to hydroxocobalamin): significant improvement in their condition | clinical response (behaviour) [3, 10]: their behaviour was considerably improved | frequency of vitamin B12 injections needed ([3]; Patient 5, N-Acetylcysteine 400 mg daily, after three months, three times weekly before): once weekly | clinical response ([3]; Patient 5, oral N-Acetylcysteine 400 mg daily added to vitamin B12 regime, after a month): more lively and with less headaches | clinical response ([3]; Patient 6, NAC 100 mg daily added to 1 mg oral cobalamin and 5 mg folic acid daily, 4 months): definitely improved | clinical response (staff comment) [3, 9]: less agitated, and more contented | MMSE score [4, 8]: 21/30 | MMSE score ([4]; Patient 2, oral N-acetylcysteine 600 mg added to hydroxocobalamin, one month): 25/30 | cognitive score [4, 10]: no improvement in their cognitive score

C/C1=C2/[N-][C@H]([C@H](CC(N)=O)[C@@]2(C)CCC(=O)NC[C@H](C)OP(=O)([O-])O[C@H]2[C@@H](O)[C@@H](n3cnc4cc(C)c(C)cc43)O[C@@H]2CO)[C@]2(C)N=C(/C(C)=C3N=C(/C=C4N=C1[C@@H](CCC(N)=O)C\4(C)C)[C@@H](CCC(N)=O)[C@]\3(C)CC(N)=O)[C@@H](CCC(N)=O)[C@]2(C)CC(N)=O.[CH3-].[Co+3] [methylcobalamin]
use as substrate / reductase activity [5]: Little or no reductase activity | clinical response ([3]; Patient 5, Chronic Fatigue Syndrome, subcutaneous methylcobalamin twice weekly): clear improvement after only their third injection | clinical condition on withdrawal of injections ([3]; Patient 5, methylcobalamin injections withdrawn in 1994): marked deterioration in relation to the withdrawal of these injections

Nc1nc2ncc(CNc3ccc(C(=O)N[C@@H](CCC(=O)O)C(=O)O)cc3)nc2c(=O)[nH]1 [folic acid]
clinical response ([3]; Patient 2, age-associated memory impairment, folic acid supplements for some months): no significant change in their symptoms

O=C(O)CCCCC1CCSS1 (stereo not drawn) [α-lipoic acid]
clinical response ([3]; Patient 4, changed from N-acetylcysteine to α-lipoic acid 50 mg twice daily, with B vitamins): clinical improvement was maintained one year later
